In article PMC2957673 (Cancer chemotherapy and pharmacology, 2010):

Tests used:
[1] = Flavopiridol plasma pharmacokinetics; type: in vivo; details: human, intravenous
[2] = tested on: patients with refractory colorectal cancer; details: combined with irinotecan at 125 mg/m^2 given weekly for 4 of every 6 weeks; cited from earlier work
[3] = tested on: patients with advanced solid tumors; experiment: Phase I dose escalation: MTD and DLT of flavopiridol with FOLFIRI; type: in vivo, human
melanoma = details: single agent; 16 patients; cited from earlier work
[4] = split-dose schedule (MTD2): 30-min bolus followed by 4-h infusion
[5] = in combination with flavopiridol

**Q.** Which results are given for CN1CC[C@H](c2c(O)cc(O)c3c(=O)cc(-c4ccccc4Cl)oc23)[C@H](O)C1 [flavopiridol, Flavopiridol]?
**A.** Cmax ([1]; Cmax, at MTDs, patients who experienced DLT): 3.48 µM; Cmax ([1]; Mean Cmax, cycle 1, cohort 9: flavopiridol 80 mg/m^2, irinotecan 180 mg/m^2, n 6): 2.69 µM; MTD of flavopiridol [2]: 50 mg/m^2; MTD with FOLFIRI ([3]; flavopiridol over 1 h (bolus schedule, cohort 9, MTD1), every 2 weeks): 80 mg/m^2; MTD with FOLFIRI, bolus part [3, 4]: 35 mg/m^2; MTD with FOLFIRI, part over 4 h [3, 4]: 35 mg/m^2; objective responses (melanoma): no objective responses

**Q.** For CCc1c2c(nc3ccc(OC(=O)N4CCC(N5CCCCC5)CC4)cc13)-c1cc3c(c(=O)n1C2)COC(=O)[C@]3(O)CC [irinotecan], which “established MTD (FOLFIRI component)” value [3, 5] is on record?
**A.** 180 mg/m^2

**Q.** With Nc1nc2c(c(=O)[nH]1)N(C=O)C(CNc1ccc(C(=O)N[C@@H](CCC(=O)O)C(=O)O)cc1)CN2 (some centres unmarked) [LV, leucovorin] as the molecule, how does the “established MTD (FOLFIRI component)” value [3, 5] read?
**A.** 400 mg/m^2

**Q.** What does the source list for O=c1[nH]cc(F)c(=O)[nH]1 [5FU, fluorouracil]?
**A.** established MTD (FOLFIRI component), bolus [3, 5]: 400 mg/m^2; established MTD (FOLFIRI component), over 48 h [3, 5]: 2,400 mg/m^2
